Data from patent publication US20080311158A1, “Hepatitis C Virus Replication System” (priority 2004, published 2008).
“Also recorded” adds a separate entry of the source.

What was measured:
HCV replication = settings: reference 101; cited from earlier work
[1] = tested on: HCV RNA in 21-5/R809 cells; assay: HCV RNA levels after IFN-α treatment of 21-5/R809 cell culture; format: cell-based, hepatitis C virus; settings: 21-5/R809 cells incubated with IFN-α
Text: FIGS. 17 and 18 show levels of HCV RNA or ribosomal RNA after IFN-α treatment of cell culture.

[2] = tested on: E1 and E2 distribution in 21-5/R809 cells; assay: Intracellular immunofluorescence of E1/E2 in 21-5/R809 cells before and after IFN-α treatment; format: cell-based, human; settings: anti E1/E2 staining, FIG. 16
Procedure: Cells were stained with anti E1/E2.
Cells were plated on […] coverslips in 24-well plates at a density of 5×10^4 cells per well. One day after seeding, cells were washed in PBS, fixed in 4% formaldehyde for 30 min and then permeabilized with 0.1% Triton X-100 in PBS for 15 min. Cells were then pretreated with blocking solution (0.5% bovin serum albumin in PBS) for 30 min and incubated for 1 h at room temperature with the primary antibodies diluted in blocking solution according to the manufacturer's instructions. After three washes in PBS, AlexaFluor-conjugated secondary antibodies were added to the cells at a 1:200 dilution for 1 h at room temperature. After washings with PBS, coverslips were washed in distilled water, and mounted in aqueous mounting medium Vectashield with DAPI (4′,6′-diamidino-2-phenylindole).

Interferon alpha [IFN-α]
HCV replication in cell culture (HCV replication): inhibit HCV replication | HCV RNA levels, absolute ([1]; FIG. 17): decrease | HCV RNA levels relative to ribosomal RNA ([1]; FIG. 18): decrease | ER-pattern distribution of E1 and E2 [2]: lose the typical ER-pattern distribution of E1 and E2; also recorded: changed the ER-pattern distribution of E1 and E2
